This note sets out measurements from ChEMBL document CHEMBL1136552, “Synthesis and preliminary cytotoxicity of nitrogen mustard derivatives of distamycin A” (Bioorg Med Chem Lett, 2003).

pIC50: −log10 of the molar value.

Usually pIC50 stands for the negative decadic logarithm of the IC50, by convention in mol/L. The low end stands for a large IC50, the high end for a small IC50.

The experiment has as its system K562. In words: Cytotoxicity against K562 leukemia cells in vitro, expressed as the minimal concentration necessary to inhibit incorporation of [3H]thymidine by 50%. To be noted: Homo sapiens, K562, 48 h. In kind it is functional, cell-based.
As for `CCCONc1cc(C(=O)Nc2cc(C(=O)Nc3cc(C(=O)Nc4ccc(N(CCCl)CCCl)cc4)n(C)c3)n(C)c2)n(C)c1`, the pIC50 is 7.52.
In turn, `CCCONc1cc(C(=O)Nc2cc(C(=O)Nc3ccc(N(CCCl)CCCl)cc3)n(C)c2)n(C)c1` showed a pIC50 of 6.60.
In the case of `CCCC(=O)Nc1cc(/C=C/C(=O)Nc2cc(C(=O)Nc3ccc(N(CCCl)CCCl)cc3)n(C)c2)n(C)c1`, the pIC50 was 6.68.
Consider `CCCC(=O)Nc1cc(/C=C/C(=O)Nc2ccc(N(CCCl)CCCl)cc2)n(C)c1`, for which the negative-log IC50 (pIC50) is 5.92.
The result for `CCCONc1cc(C(=O)Nc2ccc(N(CCCl)CCCl)cc2)n(C)c1` reads 6.02; that for `O=C(O)CCCc1ccc(N(CCCl)CCCl)cc1` [CHLORAMBUCIL], 4.46.
